Data reported in patent publication US20240376154A1, “BIS-INTERCALATING PEPTIDES, CONJUGATES AND METHODS OF USE” (ZYMEWORKS BC INC., priority 2023, published 2024).
Read-outs that look alike come from different tables or passages of the source. Where a SMILES comes first, the peptide text is derived from it. Bridges are numbered along the chain shown (N, C = ends). Roman numbers before positions name the chains, in order. [ ]: non-standard residue; d: D form. The star is where a group is joined. Quinaldoyl(3-OH) = O=C(c1nc2ccccc2cc1O)*; Pip = O=C(O)[C@@H]1CCCCN1; dDap = NC[C@@H](N)C(=O)O; Sar = CNCC(=O)O

Legend:
[1] = Lipophilicity by experimental HPLC retention time; assay type: physicochemical; conditions: HPLC retention time as measure of lipophilicity; C18, 10 to 90% CH3CN/H2O with 0.1% FA over 25 min
Outline: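 Reversed-phase HPLC with diode array detection on a Kinetex EVO C18 150×4.6, 2.6 μm column. Gradient 10 to 90% CH3CN/H2O with 0.1% FA over 25 min; retention time serves as the lipophilicity measure.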

[2] = tested on: biotinylated hairpin DNA sequence 5'-GCATGCTTTTGCATGC; test: DNA binding by surface plasmon resonance (SPR)
Description: Representative compounds prepared as described in Example 2 were assessed in two complementary DNA-binding assays. Increased melting temperature of herring sperm DNA was measured using differential scanning calorimetry (DSC) and binding kinetics were determined by surface plasmon resonance (SPR) using a short DNA hairpin sequence.
SPR experiments were conducted at 25° C. using a Biacore™ T200 instrument and SA-Biotin chip. PBST Buffer: Gibco PBS, pH 7.4 was modified with Tween®20 (0.01%) and DMSO (2%). Immobilization: a short biotinylated hairpin DNA sequence 5′-GCATGCTTTTGCATGC (5′ biotin) (SEQ ID NO: 1) that contains two known sandramycin binding segments (in bold) was heated to 90° C., cooled to RT then immobilized to 700 RU. Bis-intercalating peptides at concentrations of 5, 2.5, 1.25, 0.625, and 0.312 μM in PBST were flowed over the chip at 20 μL/min with an association time of 600 s followed by dissociation for 600 s. Reference cell values were subtracted and binding constants ka, kd, and KD were determined using Biacore™ T200 Evaluation Software, version 3.0.

[3] = tested on: tumour cells (at least 4 of a panel of ovarian, breast, lung, pancreatic, placenta, colon cell lines); test: In vitro cytotoxicity (cell proliferation, CellTiter-Glo), average over tumour cell line panel; assay type: cell-based; conditions: for pIC50 (average): average pIC50 on all cell lines tested, 5 nights incubation, CellTiter-Glo
Outline: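 Each cell line seeded at ~1000 cells/well and left to adhere overnight, then given a 10-point 1:3 compound titration for 5 nights at 37° C, 5% CO2. Viability read by CellTiter-Glo luminescence; IC50 per line, reported as pIC50 averaged across at least 4 lines.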

[4] = tested on: JEG-3 (Placental Choriocarcinoma); test: Cell proliferation assay, JEG-3; assay type: cell-based; conditions: 5 nights
Description: (§1) The ability of Compound 419 and Compound 424 to inhibit proliferation of tumour cells in vitro was measured by a cell proliferation assay using the following tumour cell lines: IGROV-1 (Ovarian Adenocarcinoma, NCI), JEG-3 (Placental Choriocarcinoma, AddexBio (C0030003)) and OVKATE (Ovarian Adenocarcinoma, Japanese Collection of Research Bioresources (JCRB) (JCRB1044)).
(§2) Cell lines were cultured as per vendor instructions prior to running the cell proliferation assay. Briefly, on the day prior to adding compound, cells (50 μL/well, 1000 cells/well) were added to sterile, tissue culture (TC)-treated, 384-well plates (ThermoFisher Scientific, Catalogue #164610) and incubated overnight at 37° C./5% CO2 to allow the cells to adhere to the plate surface. The next day, in a sterile, V-bottom, 96-well plate, compounds were titrated 1:3 in complete growth medium, creating a 10-point dose response titration with compounds at 3.5-times the desired final concentration. Control wells with no compound (growth medium only) were included for each compound titration in 96-well dilution plates. 20 uL from the 10-point dose response titration were added to the 384-well plate containing the seeded cells, in duplicate. Plates were incubated at 37° C./5% CO2 for 5 nights. After 5-night incubation, cell viability was quantified by the addition of 15 uL/well of CellTiter-Glo® (Promega, Catalogue #G7572) and incubation at room temperature for 30 minutes. After 30-minute incubation, luminescence was measured using a microplate luminometer (BioTek® Synergy™ H1 Microplate Reader). The resulting relative light units (RLU values) were converted to % cytotoxicity using the growth medium only control wells mentioned above:
(§3) Data was fit into 4-parameter logistic to curves using non-linear regression methods available with GraphPad Prism software (GraphPad Software, Inc.).

[5] = tested on: OVKATE (Ovarian Adenocarcinoma); test: Cell proliferation assay, OVKATE; assay type: cell-based; conditions: 5 nights
Description: as §1, §2, §3

[6] = tested on: IGROV-1 (Ovarian Adenocarcinoma); test: Cell proliferation assay, IGROV-1; assay type: cell-based; conditions: 5 nights
Description: as §1, §2, §3

[7] = Stability in female mouse plasma; assay type: in vitro ADME; conditions: 37° C., 24 h
Description: The stability of exemplary compounds of general Formula I in mouse plasma was evaluated as follows.
Compounds were incubated at 1 μM in duplicate in female mouse plasma, 250 μL final volume, at 37° C. for 24 h. Aliquots were sampled at 0, 15, 30, 60, 120, 240, 480 and 1440 min. Proteins were precipitated by addition of 5 volumes of cold methanol. After centrifugation 10000×g for 10 min, the residual concentration of compound in the supernatant was measured using an appropriate LC-MS/MS method. The measured concentrations were expressed as a function of time through a one-phase decay exponential regression calculated using GraphPad Prism software (GraphPad Software, Inc.) to generate the plasma half-life for each compound.

[8] = tested on: herring sperm DNA; test: DNA melting temperature by differential scanning calorimetry (DSC); assay type: binding; conditions: DSC; herring sperm DNA; DNA melting temperature = 68° C.
Outline: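 Herring sperm DNA at 1 mg/mL (1.4 mM base pair) in BPE buffer, pH 7.0, equilibrated with test article (10 mM DMSO stock) for >3 h, insolubles removed by centrifugation. Scanned 25 to 110° C. at 1° C./min; melting temperature taken from the DSC melting curve.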

[9] = amide bond, 32-membered ring

Compound | HPLC [1] | pIC50 (average) [3] | EC50 [4] | EC50 [5] | EC50 [6] | ring closure, yield after HPLC [9] | other results
CC(C)[C@@H]1NC(=O)CN(C)C(=O)CNC(=O)[C@@H]2CCCCN2C(=O)[C@H](NC(=O)c2nc3ccccc3cc2O)CNC(=O)[C@H](C(C)C)NC(=O)CN(C)C(=O)CNC(=O)[C@@H]2CCCCN2C(=O)[C@H](NC(=O)c2nc3ccccc3cc2O)CNC1=O [Compound 152] (I: {Quinaldoyl(3-OH)}-[dDap][Pip]G[Sar]V / II: {Quinaldoyl(3-OH)}-[dDap][Pip]G[Sar]V; amide I:1-II:C, I:C-II:1) | 14.6 min | 6.9 | – | – | – | – | DNA binding via SPR (in words) [2]: near complete loss of binding
CC(C)[C@H]1C(=O)NCC(=O)N(C)CC(=O)N2CCCC[C@H]2C(=O)NC[C@@H](NC(=O)c2nc3ccccc3cc2O)C(=O)N(C)[C@@H](C(C)C)C(=O)NCC(=O)N(C)CC(=O)N2CCCC[C@H]2C(=O)NC[C@@H](NC(=O)c2nc3ccccc3cc2O)C(=O)N1C [Compound 414, N,N′-((13S,16R,19aS,32S,35R,38aS)-13,32-diisopropyl-8,14,27,33-tetramethyl-6,9,12,15,19,25,28,31,34,38-decaoxohexatriacontahydro-2H,6H-dipyrido[2,1-c: 2′,1′-s][1,4,7,10,13,17,20,23,26,29]decaazacyclodotriacontine-16,35-diyl)bis(3-hydroxyquinoline-2-carboxamide)] | 16.8 min | inactive | – | – | – | – | DNA binding via SPR (in words) [2]: non-binding; KD (mM) ([2]; SPR, 25° C., hairpin DNA): none; activity in cell assays (in words) [3]: inactive
CCCN1CC(=O)N(C)[C@@H](C(C)C)C(=O)NC[C@@H](NC(=O)c2nc3ccccc3cc2O)C(=O)N2CCCC[C@H]2C(=O)NCC(=O)N(CCC)CC(=O)N(C)[C@@H](C(C)C)C(=O)NC[C@@H](NC(=O)c2nc3ccccc3cc2O)C(=O)N2CCCC[C@H]2C(=O)NCC1=O [Compound 419, N,N′-((7R,11S,19aS,26R,30S,38aS)-11,30-diisopropyl-12,31-dimethyl-6,10,13,16,19,25,29,32,35,38-decaoxo-15,34-dipropylhexatriacontahydro-2H,6H-dipyrido[1,2-a:1′,2′-q][1,4,7,10,13,17,20,23,26,29]decaazacyclodotriacontine-7,26-diyl)bis(3-hydroxyquinoline-2-carboxamide)] | – | – | 6.9 nM | 24.1 nM | 11.5 nM | – | –
CC(C)[C@H]1C(=O)NC[C@@H](NC(=O)c2nc3ccccc3cc2O)C(=O)N2CCCC[C@H]2C(=O)NCC(=O)N(C(C)C)CC(=O)N(C)[C@@H](C(C)C)C(=O)NC[C@@H](NC(=O)c2nc3ccccc3cc2O)C(=O)N2CCCC[C@H]2C(=O)NCC(=O)N(C(C)C)CC(=O)N1C [Compound 424, N,N′-((7R,11S,19aS,26R,30S,38aS)-11,15,30,34-tetraisopropyl-12,31-dimethyl-6,10,13,16,19,25,29,32,35,38-decaoxohexatriacontahydro-2H,6H-dipyrido[1,2-a:1′,2′-q][1,4,7,10,13,17,20,23,26,29]decaazacyclodotriacontine-7,26-diyl)bis(3-hydroxyquinoline-2-carboxamide)] | – | – | 55.7 nM | – | 54 nM | – | –
C[C@H]1NC(=O)[C@@H]2CCCCN2C(=O)CN(C)C(=O)CNC(=O)[C@@H]2CCCCN2C(=O)[C@H](NC(=O)c2nc3ccccc3cc2O)[C@@H](C)NC(=O)[C@@H]2CCCCN2C(=O)CN(C)C(=O)CNC(=O)[C@@H]2CCCCN2C(=O)[C@@H]1NC(=O)c1nc2ccccc2cc1O [Quinaldopeptin, quinaldopeptin, reference compound] | 16.7 min | 8.0 | 9.8 nM | 14.8 nM | 6.5 nM | – | plasma stability (in words) ([7]; 1 μM): stability over the course of the experiment
CC(C)[C@H]1C(=O)OC[C@@H](NC(=O)c2nc3ccccc3cc2O)C(=O)N2CCCC[C@H]2C(=O)NCC(=O)N(C)CC(=O)N(C)[C@@H](C(C)C)C(=O)OC[C@@H](NC(=O)c2nc3ccccc3cc2O)C(=O)N2CCCC[C@H]2C(=O)NCC(=O)N(C)CC(=O)N1C [Sandramycin, N,N′-((7R,11S,19aS,26R,30S,38aS)-11,30-diisopropyl-12,15,31,34-tetramethyl-6,10,13,16,19,25,29,32,35,38-decaoxodotriacontahydro-2H,6H,10H,25H-dipyrido[2,1-b1:2′,1′-l][1,17]dioxa[4,7,10,13,20,23,26,29]octaazacyclodotriacontine-7,26-diyl)bis(3-hydroxyquinoline-2-carboxamide), reference compound] | 21.6 min | 9.0 | 3.3 nM | 0.8 nM | 1.6 nM | – | half-life at 1 μM ([7]; female, mouse, plasma): 5.9 h; DNA melt (° C.) [8]: 102 °C
(7R,11S,19aS,26R,38aS)-26-(((benzyloxy)carbonyl)amino)-11-isopropyl-12,15,30,30,31,34-hexamethyl-6,10,13,16,19,25,29,32,35,38-decaoxohexatriacontahydro-2H,6H-dipyrido[1,2-a:1′,2′-q][1,4,7,10,13,17,20,23,26,29]decaazacyclodotriacontin-7-aminium trifluoroacetate | – | – | – | – | – | – | ring closure, yield after HPLC ([9]; 2 steps): 45%
Benzyl N-[(3R,7S,20S,27R,31S,44S)-27-[(tert-butoxycarbonyl)amino]-15,39-dimethyl-2,6,13,16,19,26,30,37,40,43-decaoxo-1,5,12,15,18,25,29,36,39,42-decaazapentacyclo[42.4.0.0^7,12.0^20,25.0^31,36]octatetracontan-3-yl]carbamate | – | – | – | – | – | 40% | –
Benzyl tert-butyl ((7R,11S,19aS,26R,30S,38aS)-11,30-diisopropyl-15,34-dimethyl-6,10,13,16,19,25,29,32,35,38-decaoxohexatriacontahydro-2H,6H-dipyrido[1,2-a:1′,2′-q][1,4,7,10,13,17,20,23,26,29]decaazacyclodotriacontine-7,26-diyl)dicarbamate | – | – | – | – | – | 20% | –
Tert-butyl (4-nitrobenzyl) ((7R,10aS,22aS,29R,32aS,44aS)-18,40-dimethyl-6,16,19,22,28,32,38,41,44-nonaoxodotetracontahydro-6H-tetrapyrido[2,1-b1: 2′,1′-c: 2″,1″-1:2′″,1′″-s][1]oxa[4,7,10,13,17,20,23,26,29]nonaazacyclodotriacontine-7,29-diyl)dicarbamate | – | – | – | – | – | 23% | –
